Assay results from US8809389B2, “Substituted alkynyl phenoxy compounds as new synergists in pesticidal compositions” (Endura S.p.A., priority 2009, dated 2014).

Tests used:
[1] = system: pollen beetle, Meligethes aeneus; assay: Discriminating dose bioassay: α-cypermethrin in mixture with synergist; format: in vivo; settings: for % Mortality: 24 h
Protocol: Two pyrethroid resistant populations originating from two different areas in Poland ‘Rogalin'and lebork’ were collected in July 2008. A putative susceptible population, UK population, was also collected in July 2008 in Hertfordshire, UK. All populations were collected from oilseed rape contained adults only and were kept at room temperature before assays were performed.
Bioassays incorporating the compounds (Compound of Example 2 and Compound of Example 3) dissolved in acetone, were carried out using a diagnostic concentration of α-cypermethrin derived from the above full dose response bioassays in a mixture of 0.01 g L^−1 of the compounds. The concentration of α-cypermethrin used for the discriminating dose bioassays was 0.3 ppm α-cypermethrin for the two polish populations, Rogalin and Lebork and 0.03 ppm α-cypermethrin for UK population. Vials treated with the compounds only, dissolved in acetone and acetone only were used as controls. Ten to 15 replicates were used for each treatment depending on insect numbers within the population. Compounds concentrations chosen conferred no mortality in preliminary bioassays.
Treated vials including the pollen beetles were stored in constant environment facilities at 18±2° C. and 16L: 8D. All bioassays were scored at an endpoint of 24 h after exposure to the insecticide. Insects incapable of coordinated movement (after gentle touching with a pencil brush if necessary) were scored as dead.

Myzus persicae = assay: Topical application bioassay on aphid clones: imidacloprid with or without synergist pre-treatment; settings: aphid clone 5191A
Protocol: Aphid clones were reared on Chinese cabbage (Brassica rapa L. var. Pekinensis c.v Wong Bok) (Brassicaceae) leaves held in small plastic box-cages maintained at 18±2° C. with a 16:8 h light:dark photoperiod (Blackman R L, Variation in the photoperiodic response within natural populations of Myzus persicae (Sulzer). Bull Ent Res 60: 533-546 (1971)).
Clone 4106A is a laboratory insecticide-susceptible standard2 . […] Both aphid clones have been established from single parthenogenetic M. persicae females (Foster S P, Denholm I, Thompson R, Poppy G M, Powell W, Reduced response of insecticide-resistant aphids and attraction of parasitoids to alarm pheromone; a potential fitness trade-off. Bull Ent Res 95: 37-46 (2005)).
12.1.2 Topical Application Bioassay with 5191A Aphid Clone Young apterae were transferred to the abaxial surface of Chinese cabbage leaf discs (10 adults per leaf disc, at least 3 replicates per concentration) held on 1% agar in plastic containers (4 cm in diameter). The upper edge of each container was coated with Fluon (Whitford Plastics, UK) to prevent subsequent aphid escape from the leaf surface. After allowing 2 h for the aphids to settle, each was dosed with 0.25 μl of either 1 g L^−1 Compound of Example 3 dissolved in acetone or acetone only. After 4 h aphids were further treated with 0.25 μl imidacloprid in acetone (96% AR) using a
Burkard microapplicator (Burkard, Rickmansworth, UK). Controls were treated with acetone only. Treated aphids were stored at 18±2° C. and 16 h light: 8 h dark photoperiod. All bioassays were scored at the endpoint of 72 h after treatment. Adults incapable of co-ordinated movement (after gentle touching with a paint brush if necessary) were scored as dead. All bioassays were completed in triplicate.

CC#CCOc1cc2c(cc1CCC)OCO2 [Example 3, 5-(but-2-ynyloxy)-6-propyl-benzo[1.3]dioxole]
% Mortality ([1]; Lebork, 0.3 ppm α-cypermethrin in mixture with 0.01 g L^−1 synergist): 86.53%
Mortality ([1]; Rogalin and Lebork, 0.3 ppm α-cypermethrin in mixture with 0.01 g L^−1 synergist): around 85%
% Mortality ([1]; Rogalin, 0.3 ppm α-cypermethrin in mixture with 0.01 g L^−1 synergist): 97.06%
% Mortality ([1]; UK population, 0.03 ppm α-cypermethrin in mixture with 0.01 g L^−1 synergist): 68.78%
Mortality with the compound only ([1]; synergist only, without α-cypermethrin (data not shown)): No mortality
LC50 of imidacloprid after pre-treatment with the synergist (Myzus persicae; FE4(R3), 0.25 μl of 1 g L^−1 synergist 4 h before imidacloprid, scored 72 h): 1.25 ppm
SF, synergism factor (LC50 unsynergised / LC50 synergised) (Myzus persicae; imidacloprid plus 1 g L^−1 synergist pre-treatment): 72.4
